Tests used:
infesting gramineae = assay: herbicidal action on infesting plants (general statements); type: in vivo; settings: in words
Text: (§1) It is understood that all the data given herein shall have no limiting character on the object of this invention.

useful plants = assay: phytotoxic action on useful plants (general statements); type: in vivo, useful gramineae; settings: in words
Text: as §1

[1] = test system: triticum vulgare L. (wheat); assay: activity on agrarian species, soil treatment one day after sowing; type: in vivo
Text: (§2) The infesting species and the agrarian species have been indicated in Table 1 by letters, as follows:
N = triticum vulgare L. (wheat)
(§3) Method of evaluation of the results (of tests):
(§4) 0 = no activity and no difference with respect to the control;
(§5) 1 slight differences with respect to the control;
(§6) 3 = considerable activity with damages that definitely impair the further development of most of the small plants; an activity degree already useful for practical purposes;
(§7) 4 = maximum of activity with lack of germination or total containment of the small plants in the emerging stage.
(§8) In the case of an intermediate activity between two classes of the scale, both values are recorded with the one which corresponds to the preeminent activity preceding.
(§9) TABLE 2 reports the activity data of other compounds that fall within the class which is the object of this invention.
(§10) TABLE 3 reports data on the herbicidal activity against infesting herbs, while TABLE 4 reports data concerning the activity on useful species of agricultural cultivations. These tables employ the criterion explained previously. The product was spread on the soil one day after sowing, in quantities of 1, 3, 6, 8, 10, 12 and 14 kg/ha.

pisum sativum L. (pea) = assay: as above; type: in vivo
solanum Lycopersicum L. = assay: as above; type: in vivo
Text: as §2
M = solanum Lycopersicum L.
as §3, §4, §5, §6, §7
In the case of an intermediate activity between two classes of the scale, both values are recorded with the one which corresponds to the preeminent activity preceding. […]

vicia sativa L. = assay: herbicidal activity, soil treatment one day after sowing; type: in vivo
Summary of the method: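 Pre-emergence soil treatment one day after sowing; activity scored visually on a […] scale against untreated control, from slight difference (1) to no germination or total containment at emergence (4); intermediate activity recorded as both classes, preeminent value first.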

oryza sativa L. (rice) = assay: activity on agrarian species, soil treatment one day after sowing; type: in vivo
Summary of the method: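 Pre-emergence soil treatment of rice applied one day after sowing at 1, 3, 6, 8, 10, 12 and 14 kg/ha. Crop injury scored against untreated control on a 0–4 scale, 4 being no germination or total containment at emergence; intermediate activity recorded as both adjacent classes.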

artemisia vulgaris L. = assay: herbicidal activity, soil treatment one day after sowing; type: in vivo
[2] = test system: echinocloa crus-galli R.S.; assay: as above; type: in vivo
chenopodium album L. = assay: as above; type: in vivo
setaria glauca L. = assay: as above; type: in vivo
[3] = test system: amaranthus retroflexus L.; assay: as above; type: in vivo
[4] = test system: phaseolus vulgaris (bean); assay: activity on agrarian species, soil treatment one day after sowing; type: in vivo, Phaseolus vulgaris L.
Summary of the method: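 Product applied to soil one day after sowing at 1, 3, 6, 8, 10, 12 and 14 kg/ha. Effect on bean plants scored against control on a 0–4 scale, 4 meaning no germination or total containment at emergence; intermediate activity recorded with both values.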

zea mais L. (corn) = assay: as above; type: in vivo
Summary of the method: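 Pre-emergence soil application one day after sowing at 1, 3, 6, 8, 10, 12 and 14 kg/ha. Crop damage scored visually against untreated control on a 0–4 scale (0 = no effect, 4 = no germination or total containment at emergence); intermediate effects recorded with both scores.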

avena sativa (oats) = assay: as above; type: in vivo, Avena sativa L.
[5] = test system: beta vulgaris L. (sugar-beet); assay: as above; type: in vivo
Text: as §2
H = beta vulgaris L. (sugar-beet)
as §3, §4, §5, §6, §7, §8, §9, §10

Compound	activity on N, 0-4 scale ([1]; in vivo)	activity on L, 0-4 scale (pisum sativum L. (pea); in vivo)	activity on M, 0-4 scale (solanum Lycopersicum L.; in vivo)	activity on F, 0-4 scale (vicia sativa L.; 2 kg/ha)	activity on F, 0-4 scale (vicia sativa L.; 6 kg/ha)	activity on P, 0-4 scale (oryza sativa L. (rice); in vivo)	activity on B, 0-4 scale (artemisia vulgaris L.; 2 kg/ha)	activity on B, 0-4 scale (artemisia vulgaris L.; 6 kg/ha)	activity on D, 0-4 scale ([2]; 2 kg/ha)	activity on D, 0-4 scale ([2]; 4 kg/ha)	activity on D, 0-4 scale ([2]; 6 kg/ha)	activity on C, 0-4 scale (chenopodium album L.; 2 kg/ha)	activity on C, 0-4 scale (chenopodium album L.; 6 kg/ha)	activity on E, 0-4 scale (setaria glauca L.; 2 kg/ha)	activity on E, 0-4 scale (setaria glauca L.; 6 kg/ha)	activity on A, 0-4 scale ([3]; 2 kg/ha)	activity on A, 0-4 scale ([3]; 6 kg/ha)	activity on I, 0-4 scale ([4]; in vivo)	activity on O, 0-4 scale (zea mais L. (corn); in vivo)	activity on G, 0-4 scale (avena sativa (oats); in vivo)	other results
CCCN(CCC)C(=O)c1cc(Cl)cc(Cl)c1 [3,5-dichloro-N,N-di-n.propyl-benzamide]	–	–	–	–	–	–	–	–	–	–	–	–	–	–	–	–	–	–	–	–	herbicidal action (infesting gramineae): very active; phytotoxic action on useful plants (useful plants): phytotoxic action of considerable intensity
CCC(C)N(C(=O)c1ccc(C)c(Cl)c1)C(C)CC (stereo not drawn) [PA445, 3-chloro,4-methyl-N,N-di-sec.butyl-benzamide]	0	0	0	0	0-1	0	1	3-4	3	3-4	4	1	4	3-4	4	0-1	2	0	0	0	activity on F, 0-4 scale (vicia sativa L.; 4 kg/ha): 0; activity on B, 0-4 scale (artemisia vulgaris L.; 4 kg/ha): 2; activity on C, 0-4 scale (chenopodium album L.; 4 kg/ha): 2-3; activity on A, 0-4 scale ([3]; 4 kg/ha): 1
CCC(C)N(C(=O)c1c(Cl)cccc1Cl)C(C)CC (stereo not drawn) [PA227, 2,6-dichloro-N,N-di-sec.butyl-benzamide]	0	0	1	0	0	0	0-1	2	2	3	4	1	3-4	2	4	1-2	–	0	0	0	activity on H, 0-4 scale ([5]; in vivo): 2; activity on F, 0-4 scale (vicia sativa L.; 4 kg/ha): 0; activity on B, 0-4 scale (artemisia vulgaris L.; 4 kg/ha): 1-2; activity on C, 0-4 scale (chenopodium album L.; 4 kg/ha): 2; activity on E, 0-4 scale (setaria glauca L.; 4 kg/ha): 3; activity on A, 0-4 scale ([3]; 4 kg/ha): 3
CCN(CC)C(=O)c1ccc(Cl)c(Cl)c1 [PA61, 3,4-dichloro-N,N-diethyl-benzamide, reference compound]	1	1	3-4	2-3	3	3	3	3-4	1	–	3	3	3	2	–	3	3-4	1	2	1	activity on H, 0-4 scale ([5]; in vivo): 3-4
CCCCN(C(=O)c1ccc(Cl)c(Cl)c1)C(C)CC (stereo not drawn) [PA514, 3,4-dichloro-N-n.butyl,N-sec.butyl-benzamide]	0	0	0	–	0-1	0	–	0-1	1	2-3	3	–	2	2	–	–	1	0	0	0	activity on E, 0-4 scale (setaria glauca L.; 4 kg/ha): 3
CCC(C)N(C(=O)c1cc(Cl)ccc1Cl)C(C)CC (stereo not drawn) [PA412, 2,5-dichloro-N,N-di-sec.butyl-benzamide]	0	0	1	–	0	0	–	2	3	–	4	–	2-3	3	4	–	3	0	0	0	activity on F, 0-4 scale (vicia sativa L.; 3 kg/ha): 0; activity on B, 0-4 scale (artemisia vulgaris L.; 3 kg/ha): 1; activity on D, 0-4 scale ([2]; 1 kg/ha): 1-2; activity on D, 0-4 scale ([2]; 3 kg/ha): 3-4; activity on C, 0-4 scale (chenopodium album L.; 3 kg/ha): 1-2; activity on E, 0-4 scale (setaria glauca L.; 1 kg/ha): 3; activity on E, 0-4 scale (setaria glauca L.; 3 kg/ha): 4; activity on A, 0-4 scale ([3]; 3 kg/ha): 2
CCC(C)N(C(=O)c1ccc(Cl)c(Br)c1)C(C)CC (stereo not drawn) [PA489, 3-bromo,4-chloro-N,N-di-sec.butyl-benzamide]	–	–	–	0	0-1	–	0-1	3	3-2	3-4	3-4	1	2	3	4	1	3	–	–	–	activity on H, 0-4 scale ([5]; 6 kg/ha): 1; activity on N, 0-4 scale ([1]; 3 kg/ha): 0; activity on N, 0-4 scale ([1]; 6 kg/ha): 0; activity on L, 0-4 scale (pisum sativum L. (pea); 3 kg/ha): 0; activity on L, 0-4 scale (pisum sativum L. (pea); 6 kg/ha): 0; activity on M, 0-4 scale (solanum Lycopersicum L.; 6 kg/ha): 1; activity on F, 0-4 scale (vicia sativa L.; 4 kg/ha): 0; activity on P, 0-4 scale (oryza sativa L. (rice); 3 kg/ha): 0; activity on P, 0-4 scale (oryza sativa L. (rice); 6 kg/ha): 0; activity on B, 0-4 scale (artemisia vulgaris L.; 4 kg/ha): 1; activity on C, 0-4 scale (chenopodium album L.; 4 kg/ha): 1-2; activity on E, 0-4 scale (setaria glauca L.; 4 kg/ha): 4-3; activity on A, 0-4 scale ([3]; 4 kg/ha): 1-2; activity on I, 0-4 scale ([4]; 3 kg/ha): 0; activity on I, 0-4 scale ([4]; 6 kg/ha): 0; activity on O, 0-4 scale (zea mais L. (corn); 3 kg/ha): 0; activity on O, 0-4 scale (zea mais L. (corn); 6 kg/ha): 0; activity on G, 0-4 scale (avena sativa (oats); 3 kg/ha): 0; activity on G, 0-4 scale (avena sativa (oats); 6 kg/ha): 0

Reference: patent US3982931A, “N,N-di-sec.butyl-benzamide herbicides” (priority 1967, dated 1976)
